Measurements as given in patent US20250108038A1 (priority 2023, published 2025).
Where two headings read alike, the source gives them in different places.

What was measured:
OAT3 = target: T1, OAT3 (Homo sapiens, UniProt Q8TCC7); assay: Uptake transporter inhibition assay, OAT3 (estrone-3-sulfate); settings: for inhibition at 500 μM: human
T1 sequence (Q8TCC7 1-542): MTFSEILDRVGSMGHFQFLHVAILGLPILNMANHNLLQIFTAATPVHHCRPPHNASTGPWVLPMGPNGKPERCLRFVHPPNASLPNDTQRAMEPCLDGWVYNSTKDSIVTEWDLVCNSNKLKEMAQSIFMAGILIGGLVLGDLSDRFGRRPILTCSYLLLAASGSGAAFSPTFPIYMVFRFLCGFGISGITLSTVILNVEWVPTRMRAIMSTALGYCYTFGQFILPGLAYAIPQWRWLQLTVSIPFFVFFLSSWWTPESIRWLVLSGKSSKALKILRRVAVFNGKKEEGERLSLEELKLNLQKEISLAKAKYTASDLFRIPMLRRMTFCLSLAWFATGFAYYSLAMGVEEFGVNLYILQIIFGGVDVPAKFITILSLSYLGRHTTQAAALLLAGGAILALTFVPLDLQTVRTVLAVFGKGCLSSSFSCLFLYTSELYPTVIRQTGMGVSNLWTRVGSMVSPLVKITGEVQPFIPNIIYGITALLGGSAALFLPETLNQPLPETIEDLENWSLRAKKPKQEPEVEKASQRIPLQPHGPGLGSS
Experimental: Uptake experiments were performed using HEK293 cells stably expressing the respective uptake transporters. The assays were conducted according to the actual SOLVO uptake transporter assay protocols (PR-ASY-UPT-General Protocol for Uptake Transporter Inhibition Assays).
Cells were cultured at 37° C. in a humidified atmosphere containing 5% CO2 and were plated onto standard 96-well tissue culture plates.
Before the experiment, the medium was removed, and the cells were washed twice with 100 μL of pre-warmed (37° C.) assay buffer listed in Table 15. The cells were pre-incubated at 37° C. for 30 minutes in assay buffer containing the test article at appropriate concentrations (Table 16), appropriate solvents for solvent controls and the reference inhibitor for reference inhibitor wells. After the pre-incubation step solutions were removed. Uptake experiments were performed at 37° C. in 50 μL of assay buffer containing the probe substrate and the test article or solvent and controls.
After the experiment, cells were washed twice with 100 μL of appropriate cold buffer and lysed with 150 μL scintillation cocktail. Radiolabeled probe substrate transport was determined by liquid scintillation counting.
Uptake of the probe substrate in control cells provided background activity values for all data points.

[1] = system: orexin/tTA; Tet-O diphtheria toxin A mice (DTA mice); assay type: in vivo, mouse; settings: 6 h after dosing at ZT12; for cataplexy (C) time: Compound I-19 0.3, 1, 3 mg/kg i.p., Compound I-4 0.3, 1, 3 mg/kg p.o., Des 5 mg/kg p.o.
Wistar rats = assay type: in vivo, Wistar rat
Experimental: Animals were trained in eight automated 5C-SRTT operant chambers (Med Associates, St. Albans, VT, USA), controlled by MedPC software (Med Associates). Briefly, each operant chamber was equipped with 5 apertures containing a photocell beam to detect nose pokes and a lamp (2.8 W) that could be illuminated randomly at varying durations. Food pellets (45 mg chow pellet, BioServ, Frenchtown, NJ, USA) were delivered automatically to a magazine, located on the opposite wall to the nose pokes, that was also equipped with a light that turned on to indicate that a pellet had been dispensed. The house-light remained on for the entire session unless an error or omission occurred. Training sessions began with the delivery of a food reward and retrieval triggered the first trial. […] Training began with the stimulus duration set at 10 sec, a limited hold period of 5 sec and an ITI of 5 sec. […] Sessions ended when 40 minutes had lapsed or 100 trials had been completed.
Upon meeting the performance criteria, animals were assessed in the vSD version of the task where the following stimulus durations were presented in a pseudorandom manner: 0.3, 0.6 and 0.9 sec. Later, subjects were assessed in the vITI version where 2.5, 5.0 and 10.0 sec ITIs were employed in a pseudorandom manner. Performance parameters measured were: % hit ((# correct/(# correct+# incorrect including omissions))×100); % correct ((# correct/(# correct+# incorrect excluding omissions))×100); premature responses (# of nose-pokes into any aperture after trial initiation but before onset of the stimulus light); timeout responses (# of nose pokes into any aperture during a timeout period), perseverative responses (# of nose pokes occurring after the correct response had been made but before reward collection); # of food magazine head entries, omissions and total trials completed. The latency to correct response (time taken from the onset of the nose poke light stimulus to making the correct nose poke response), latency to incorrect response (time taken from onset of nose poke light stimulus to making the incorrect nose poke response), and latency to reward (i.e., the magazine latency, time taken from making a correct nose poke response to retrieving the reward from the magazine) was also recorded.
Drug doses and vehicle were administered in a pseudorandom fashion. Drug or vehicle sessions were performed 1-2 times per week with maintenance training (behavioral testing without drug or vehicle injections) interspersed.
All data were collated and entered into Microsoft Excel spreadsheets. The data were subsequently imported into StatView 5.0 for statistical analyses. One and two factor analysis of variance (ANOVA) tests were used with repeated measures when indicated, followed by Fisher LSD or Student Newman Keuls as post-hoc tests. All results were expressed as the mean (±S.E.M.). Differences between means from experimental groups were considered significant at the p<0.05 level. The statistical F values and degrees of freedom associated with the two factor ANOVA analyses are provided in the text of this report. Please refer to the statistical reports in the appendices for the values associated with one factor ANOVAs for the overall means and overall total values.

human red blood cells = assay: Hemolysis study in human blood; assay type: cell-based; settings: 60 min, 37° C.
Experimental: (§1) FIG. 4A. […] Compound I-19 in human blood. Red blood cells were isolated from whole blood and resuspended in PBS. […] (final concentrations 25, 50, and 100 μM) and the mixtures were incubated at 37° C. for 60 min. After the incubation, the samples were centrifuged and the absorbance of 100 μL of supernatant was read at 410 nm. % RBC lysis is expressed relative to 100% lysis control. Values represent mean+SEM of n=3 separate experiments.
FIG. 4B. Hemolytic Potential of Compound I-4 in human blood. Red blood cells were isolated from whole blood and resuspended in PBS. 190 μL of diluted RBC suspension and 10 μL of Compound I-4 solutions were mixed at 0 min. (final concentrations 25, 50, and 100 μM) and the mixtures were incubated at 37° C. for 60 min. After the incubation, the samples were centrifuged and the absorbance of 100 μL of supernatant was read at 410 nm. % RBC lysis is expressed relative to 100% lysis control. Values represent mean+SEM of n=3 separate experiments.
(§2) FIG. 4C. Hemolytic Potential of Amphotericin B in human blood (positive assay control). Red blood cells were isolated from whole blood and resuspended in PBS. 190 μL of diluted RBC suspension and 10 μl of amphotericin B solutions were mixed at 0 min. (final concentrations 1, 10, 30, and 100 μM) and the mixtures were incubated at 37° C. for 60 min. After the incubation, the samples were centrifuged and the absorbance of 100 μL of supernatant was read at 410 nm. % RBC lysis is expressed relative to 100% lysis control. Values represent mean+SEM of n=3 separate experiments.
(§3) To a clear 96-well V-bottom polystyrene plate, the test articles (10 μL) and the diluted RBCs (190 μL) from human or rat blood were mixed for final concentrations of 25, 50, and 100 μM. The reaction mixture was incubated at 37° C. for 60 min. Following the exposure period, the plates were centrifuged. After centrifugation, 70 μL of supernatant (without disturbing the pellet) was transferred to a clean and clear polystyrene flat bottomed 96-well plate and the absorbance of the sample at a single wavelength was measured using a BioTech Synergy H1 Plate Reader at a wavelength of 410 nm. The positive control for this assay was amphotericin B test at concentrations of 1, 10, 30, and 100 μM.

rat red blood cells = assay: Hemolysis study in rat blood; assay type: cell-based; settings: 60 min, 37° C.
Experimental: as §1, with “6A.” for “4A.”, “rat” for “human”
as §1, with “6B.” for “4A.”, “rat” for “human”, “μl” for “μL”
as §2, with “6C.” for “4C.”, “rat” for “human”, “μL” for “μl”
as §3

[2] = test articles 25, 50, 100 μM, amphotericin B 1, 10, 30, 100 μM

Question: With `CCCN(CCC)S(=O)(=O)c1ccc(C(=O)O)cc1` [Probenecid] as the compound, how does the Transporter specific accumulation (OAT3; 500.00 μM nominal, E3S, Table 130) read?
Answer: Its Transporter specific accumulation is 291.67 ± 17.04 cpm.

Question: And the “Relative transporter specific accumulation” value (OAT3; 500.00 μM, reference inhibitor)?
Answer: Its value is 1.68 ± 0.31 % of control.

Question: What about the inhibition at 500 μM (OAT3; Relative Inhibition, 500.00 μM nominal, E3S, Table 130) of the same compound?
Answer: Its inhibition at 500 μM is 98%.

Question: And the inhibition at 500 μM (OAT3; Relative inhibition, 500.00 μM, reference inhibitor)?
Answer: The inhibition at 500 μM was 97%.

Question: `CNCCCN1c2ccccc2CCc2ccccc21` [Desipramine, reference compound] was tested. Which “latency to REM (effect)” value [1] did it give?
Answer: Its value is “increased the latency to REM onset”.

Question: What about the “cataplexy (C) time” value [1] of the same compound?
Answer: Its value is “decreased significantly for the first 2 h post administration but was not significant overall”.

Question: And the “cataplexy (C) time” value ([1]; listed as Des)?
Answer: Its value is “decreased for the first 2 h post administration but was not significant overall”.

Question: What about the REM time ([1]; same doses) of the same compound?
Answer: Its REM time is “overall reduction in REM sleep did not reach significance”.

Question: How did the “% hit rate” value (Wistar rats; nicotine 0.05-0.2 mg/kg sc, Compound I-4 0.1-3.0 mg/kg ip, Compound I-19 0.03-1.0 mg/kg ip) turn out when `CN1CCCC1c1cccnc1` (stereo not shown) [nicotine, Nicotine, reference compound] was run?
Answer: The value was “increase in the % hit rate”.

Question: What about the “% correct” value (Wistar rats; same doses) of the same compound?
Answer: The value was “no statistically significant effects”.

Question: And the Magazine Head Entries (Wistar rats; same doses)?
Answer: Its Magazine Head Entries is “increase in the number of premature responses, timeout responses, magazine head entries”.

Question: What about the Omissions (Wistar rats; same doses) of the same compound?
Answer: Its Omissions is “decrease in omissions”.

Question: What about the “number of trials completed” value (Wistar rats; same doses) of the same compound?
Answer: Its value is “no effect on the total number of trials completed”.

Question: And the perseverative responses (Wistar rats; same doses)?
Answer: The perseverative responses was “no statistically significant effects on perseverative responses or reward latencies”.

Question: And the premature responses (Wistar rats; same doses)?
Answer: Its premature responses is “the higher 2 doses of nicotine were associated with an increase”.

Question: What about the “response latencies (correct, incorrect)” value (Wistar rats; same doses) of the same compound?
Answer: Its value is “modest decrease in the response latencies associated with correct responses”.

Question: And the reward latencies (Wistar rats; same doses)?
Answer: Its reward latencies is “no statistically significant effects on perseverative responses or reward latencies”.

Question: What about the timeout responses (Wistar rats; same doses) of the same compound?
Answer: Its timeout responses is “increase in the number of premature responses, timeout responses, magazine head entries”.

Question: What does the source list for `C[C@@H]1[C@H](O)[C@@H](C)/C=C/C=C/C=C/C=C/C=C/C=C/C=C/[C@H](O[C@@H]2O[C@H](C)[C@@H](O)[C@H](N)[C@@H]2O)C[C@@H]2O[C@](O)(C[C@@H](O)C[C@@H](O)[C@H](O)CC[C@@H](O)C[C@@H](O)CC(=O)O[C@H]1C)C[C@H](O)[C@H]2C(=O)O` [amphotericin B, reference compound]?
Answer: EC50 (human red blood cells; read-out: EC50 (% RBC lysis)): 7.06 µM; % RBC lysis (hemolytic potential) (human red blood cells; [2]): dose-dependent increase in % RBC lysis; EC50 (rat red blood cells; read-out: EC50 (% RBC lysis)): 4.73 µM; % RBC lysis (hemolytic potential) (rat red blood cells; [2]): dose-dependent increase in % RBC lysis
